According to patent US6864251B2, “Treatment of LTB4-mediated inflammatory disorders with optically-pure (R)-2,3-benzodiazepines” (Vela Pharmaceuticals, Inc., priority 2002, dated 2005):
Where “and” joins values, the source holds several entries; their conditions need not be identical. Equal entries are not always repeated.

How the values were obtained:
DSS-induced colitis = assay: Dextran sulfate sodium induced colitis: mouse model of inflammatory bowel disease; type: in vivo, Swiss Webster mice; details: for Mean DAI ± SEM: DSS 5% in tap water; for Mean DAI* ± SEM: DAI without weight loss parameter; for % of normal length: colon length
Description: In this model of colitis, an acute inflammation of the colon was produced by administration of dextran sulfate sodium (DSS) as a 5% solution in tap water. This colitis was characterized by histological events and an influx of neutrophils, macrophages and mediators of inflammation similar to those observed with human inflammatory bowel diseases. […] The following study was conducted in accordance with protocols of Okayasu et al., Gastroenterology, 98:694-702, 1990.
One hundred ten test animals (female, 6 week old Swiss Webster mice, 18-30 g) were divided into ten groups, selected to eliminate any statistical differences in mean group weight.
Each animal was dosed daily (IP) with either a test substance or vehicle, starting on Day 0. Beginning on Day 1, acute colon inflammation was induced by the administration ad libitum in drinking water of dextran sulfate sodium (DSS) as a 5% solution in tap water (10 mL/mouse/day for 5-6 days), with no other fluid source for animals in the DSS arm of the study. Filtered tap water was available ad libitum except for animals receiving 5% DSS as the sole source of fluid. After four days, signs of acute disease occured with the loss of weight, diarrhea and bloody stools. Histological changes included initial shortening of the crypts, then areas of separation of the crypts and the muscularis mucosae in the absence of destructive inflammatory filtrate. After five days, pathological changes became confluent with the appearance of erosions and early hyperplastic epithelium. Inflammation scores were high with neutrophils, lymphocytes, and plasma cells in the lamina propria but sparing the epithelium.
Test compounds were administered intraperitoneally (IP). Test compounds given during this period were evaluated for prophylactic activity and test compounds given after the disease state was established were evaluated for therapeutic activity.
Test animals were weighed daily from Day 0 to Day 8, or until completion of the study. The total duration of the study with DSS arm of the study was varied depending on the time progress of colitis. The condition of the test animals and consistency of stools was noted.
At the conclusion of the study, test animals were euthanized (CO2), a midline incision was made and a stool sample was obtained. The sample was placed on a slide and tested for occult blood (Quic-Cult™, Laboratory Diagnostics Co., Morganville, N.J.). Occult blood was determined by placing two drops of the reagent onto the sample and observing any color change. Occult blood presence was graded using a scoring protocol assigning a score of 0 for no color; 1 for a very light blue color (+/−) forming in >30 seconds; 2 for a blue color developing in 30 seconds or more (+); 3 for a change in color occurring in less than 30 seconds (++); and 4 for gross blood observable on the slide. The colon was gently stretched and the length from the colon-cecal junction to the end of the distal rectum was measured to the nearest 0.1 cm.
The scores for each test animal were added and then divided by three to give a DAI score for each animal.

[1] = tested on: LTB4-induced dermal inflammation; assay: Rabbit model of LTB4-induced dermal inflammation, histopathology of intradermal challenge sites; type: in vivo, New Zealand White Rabbits; design: key to Inflammation score / Edema score: 0=normal; T=trace; 1=minimal; 2=mild; 3=moderate; 4=marked; details: test article IP 60 mg/kg (dexamethasone 0.5 mg/kg); for Edema score / Inflammation score: 4 hr after challenge
Description: Test compounds were prepared as follows. The vehicle was first prepared by dissolving […] of hydroxypropylmethylcellulose 2910 (HPMC)(Sigma Chemical, St. Louis, Mo.) in 50 mL of 0.9% saline to yield a concentration of 2% HPMC. The three test articles, (R)-, (S)- and racemic tofisopam, were formulated by adding 1 g of each test article to 10 mL of vehicle.
On Day 0, the rabbits were sedated with ketamine/xylazine (35/5 mg/kg, s.c.) and an area of approximately 8×14 cm on the back was closely and carefully clipped to expose the skin, but not inflame or otherwise damage the epithelium. A grid of ten squares each approximately 2.5×2.5 cm was drawn on each animal's back using an indelible marker. The animals were then dosed intraperitoneally with the appropriate test article corresponding to the group. Thirty minutes after dosing with test or control article, the animals were challenged intradermally with the LTB4 or LTB4-aminopropamide (LTB4-AP, a synthetic LTB4 agonist) in the appropriate site as shown in Table 4. Each injection site was marked with an indelible marker in order to identify the exact location of the intradermal injection site. Sixty minutes after challenge, the animals were treated again with tofisopam or control articles. The animals were sacrificed 4 hrs. after challenge, and the intradermal injection sites were excised, fixed in 10% neutral buffered formalin (NBF), and submitted for histopathology. H&E-stained sections were read by a board-certified veterinary pathologist using light microscopy.
All animals were sacrificed 4 hr after challenge. The intradermal challenge sites were excised, placed on unique cardboard squares, fixed in 10% NBF, and submitted for histopathology. The skin sections included the epidermis and the subcutis, down to the back musculature.
The marked skin sections were fixed for at least 48 hours on small cardboard squares. At gross trimming, three levels were cut through marked skin region in order to assure that the injection sites is brought into the plane of section. The skins were gross trimmed, processed by dehydration, embedded in paraffin, sectioned at 3-5 μm, and stained with hematoxylin and eosin.
The tissues were evaluated histopathologically via light microscopy by a board-certified veterinary pathologist. Initially, the identity of the slides was masked in order to perform the initial evaluation and rank the slides. The slides were then unmasked and there was a careful assessment of the lesions and careful comparison of the tofisopam-treated sites to the vehicle and positive control tissues. The lesions were graded based upon the degree of inflammation and the degree of edema. The severity of the inflammation and edema was keyed as follows: 0=normal; T=trace; 1=minimal; 2=mild; 3=moderate; 4=marked.

CC[C@@H]1C(C)=NN=C(c2ccc(OC)c(OC)c2)c2cc(OC)c(OC)cc21 [(S)-tofisopam, (S)-1-(3,4-dimethoxyphenyl)-4-methyl-5-ethyl-7,8-dimethoxy-5H-2,3-benzodiazepine]
Mean colon length CM ± SEM (DSS-induced colitis; 16 mg/kg IP daily, DSS 5%): 8.4 ± 0.19 CM | Mean DAI ± SEM (DSS-induced colitis; 16 mg/kg IP daily): 2.37 ± 0.24 | Mean weight ± SEM, Day 0 (DSS-induced colitis; 16 mg/kg IP daily, DSS 5%): 26.0 ± 0.4 g | % weight change ± SEM, Day 8 (DSS-induced colitis; 16 mg/kg IP daily, DSS 5%): 0.0 ± 1.5% | Mean weight ± SEM, Day 8 (DSS-induced colitis; 16 mg/kg IP daily, DSS 5%): 26.0 ± 0.5 g | % weight change ± SEM, Day 9 (DSS-induced colitis; 16 mg/kg IP daily, DSS 5%): 1.5 ± 1.5% | Mean weight ± SEM, Day 9 (DSS-induced colitis; 16 mg/kg IP daily, DSS 5%): 25.6 ± 0.5 g | % weight change ± SEM, Day 10 (DSS-induced colitis; 16 mg/kg IP daily, DSS 5%): 5.4 ± 1.6% | Mean weight ± SEM, Day 10 (DSS-induced colitis; 16 mg/kg IP daily, DSS 5%): 24.6 ± 0.6 g | Mean colon length CM ± SEM (DSS-induced colitis; 32 mg/kg IP daily, DSS 5%): 8.1 ± 0.19 CM | Mean DAI ± SEM (DSS-induced colitis; 32 mg/kg IP daily): 3.07 ± 0.25 | Mean weight ± SEM, Day 0 (DSS-induced colitis; 32 mg/kg IP daily, DSS 5%): 25.9 ± 0.4 g | % weight change ± SEM, Day 8 (DSS-induced colitis; 32 mg/kg IP daily, DSS 5%): 3.0 ± 0.6% | Mean weight ± SEM, Day 8 (DSS-induced colitis; 32 mg/kg IP daily, DSS 5%): 25.1 ± 0.6 g | % weight change ± SEM, Day 9 (DSS-induced colitis; 32 mg/kg IP daily, DSS 5%): 4.9 ± 2.4% | Mean weight ± SEM, Day 9 (DSS-induced colitis; 32 mg/kg IP daily, DSS 5%): 24.6 ± 0.6 g | % weight change ± SEM, Day 10 (DSS-induced colitis; 32 mg/kg IP daily, DSS 5%): 10.4 ± 3.2% | Mean weight ± SEM, Day 10 (DSS-induced colitis; 32 mg/kg IP daily, DSS 5%): 23.2 ± 0.9 g | Mean colon length CM ± SEM (DSS-induced colitis; 64 mg/kg IP daily, DSS 5%): 8.2 ± 0.20 CM | Mean DAI ± SEM (DSS-induced colitis; 64 mg/kg IP daily): 2.78 ± 0.27 | Mean weight ± SEM, Day 0 (DSS-induced colitis; 64 mg/kg IP daily, DSS 5%): 25.9 ± 0.4 g | % weight change ± SEM, Day 8 (DSS-induced colitis; 64 mg/kg IP daily, DSS 5%): 1.2 ± 1.5% | Mean weight ± SEM, Day 8 (DSS-induced colitis; 64 mg/kg IP daily, DSS 5%): 25.8 ± 0.6 g | % weight change ± SEM, Day 9 (DSS-induced colitis; 64 mg/kg IP daily, DSS 5%): 6.9 ± 1.8% | Mean weight ± SEM, Day 9 (DSS-induced colitis; 64 mg/kg IP daily, DSS 5%): 24.1 ± 0.5 g | % weight change ± SEM, Day 10 (DSS-induced colitis; 64 mg/kg IP daily, DSS 5%): 10.4 ± 1.7% | Mean weight ± SEM, Day 10 (DSS-induced colitis; 64 mg/kg IP daily, DSS 5%): 23.2 ± 0.6 g | Mean DAI* ± SEM (DSS-induced colitis; 16 mg/kg IP daily, DSS 5%): 2.85 ± 0.18 | Mean DAI* ± SEM (DSS-induced colitis; 32 mg/kg IP daily, DSS 5%): 3.60 ± 0.30 | Mean DAI* ± SEM (DSS-induced colitis; 64 mg/kg IP daily, DSS 5%): 2.94 ± 0.24 | inhibition at 16 mg/kg (DSS-induced colitis; Mus musculus, 16 mg/kg IP daily, DSS 5%, read-out: Colon shortening inhib. %): 11% | inhibition at 32 mg/kg (DSS-induced colitis; Mus musculus, 32 mg/kg IP daily, DSS 5%, read-out: Colon shortening inhib. %): 4% | inhibition at 64 mg/kg (DSS-induced colitis; Mus musculus, 64 mg/kg IP daily, DSS 5%, read-out: Colon shortening inhib. %): 7% | % of normal length (DSS-induced colitis; 16 mg/kg IP daily, DSS 5%): 67.3% | % of normal length (DSS-induced colitis; 32 mg/kg IP daily, DSS 5%): 64.9% | % of normal length (DSS-induced colitis; 64 mg/kg IP daily, DSS 5%): 65.4% | Edema score ([1]; injection site: LTB4 500 ng): 2 | Inflammation score ([1]; injection site: LTB4 500 ng): 1 and 2 | Edema score ([1]; injection site: LTB4 1000 ng): 3 and 4 | Edema score ([1]; injection site: LTB4 2000 ng): 2 and 4 | Edema score ([1]; injection site: LTB-ap 500 ng): 2 and 3 | Edema score ([1]; injection site: LTB-ap 1000 ng): 3 and 4 | Edema score ([1]; injection site: LTB-ap 2000 ng): 2 and 1 and 4 | Edema score ([1]; injection site: Vehicle 0 ng): T and 1 | Inflammation score ([1]; injection site: Vehicle 0 ng): T and 1 | Histopathology finding: reduction of inflammation and edema ([1]; summary in words): no meaningful reduction in the inflammation and edema
